Laboratory results reported in patent publication EP1537869A2, “Radiosensibilizer and preparation thereof” (Christian-Albrechts-Universität zu Kiel, priority 2003, dated 2005).

Key:
hypoxischen CHO-ZeIlen = assay: Radiosensitisation of hypoxic CHO cells (enhancement ratio ER); format: cell-based; conditions: radiosensitising effect
Text: Nickel-α-Diimin-Komplexe der Strukturtypen (α-Diimin)NiCl2 und [(α-Diimin)2Ni](ClO4)2 mit dem α-Diimin Antipy-PCD zeigen gegenüber isosteren Palladium- und Platin-Komplexen erhöhte radiosensibilisierende Wirkungen in hypoxischen CHO-ZeIlen; ER = 1,41 resp. 1,37. Für den unkoordinierten Antipy-PCD-Liganden, mit dem bekannten bioaktiven Molekülteil Phenazon, konnte nur ein sehr geringer strahlensensibilisierender Effekt (ER = 1,13) nachgewiesen werden. Die neutralen α-Diimin-Metall-Halogenid-Komplexe (a) der Nickel-Triade haben gegenüber analogen ionischen Perchlorat-Komplexen (b) eine deutlich höhere radiosensibilisierende Wirkung. Folgende Reihen entsprechender Komplexe - bezogen auf das Zentralmetall - mit abnehmenden o.g. sensibilisierenden Eigenschaften wurden ermittelt: für • (a) Ni > Pd > Pt • (b) Ni > Pt > Pd
Von den untersuchten neuen Platin-α-Diimin-Komplexen ist die fünffach koordinierte (Antipy-PCD)PtCl2(NH3)-Verbindung wegen ihres relativ hohen strahlensensibilisierenden Effektes (ER = 1,36) - verglichen mit ER-Literaturdaten für Platinkomplexe - bedeutsam. Eine entsprechende Sensibilisierung aerobischer CHO-ZeIlen durch die hier untersuchten Substanzen wurde in keinem Fall beobachtet.

in vitro = conditions: hamster, cho cells
[1] = test system: Mammakarzinomzell-Linie MDA-MB 231; assay: In vitro toxicity (T/C in %) on breast carcinoma cell line; format: cell-based, menschlichen; conditions: MDA-MB 231, qualitative or ranking
Text: Die Toxizität (T/C in %) weiterer erstmals dargestellter α-Diimin-Komplexe der Nickel-Triade unterschiedlicher Strukturtypen wurde in vitro an der menschlichen Mammakarzinomzell-Linie MDA-MB 231 getestet.

Row | Compound | ER (hypoxischen CHO-ZeIlen) | viability at 3 h, 300 µM (in vitro) | Toxizität (T/C in %) [1]
1 | Dichloro-2-pyridinal-(2,3-dihydro-1,5-dimethyl-3-oxo-2-phenyl-1H-pyrazol-4-ylimin)ammin-platin(II) [(Antipy-PCD)PtCl2(NH3)] | 1,36 |  | 
2 | Cc1c(N=Cc2ccccn2)c(=O)n(-c2ccccc2)n1C [Antipy-PCD, 2-Pyridinal-2,3-dihydro-1,5-dimethyl-3-oxo-2-phenyl-1H-pyrazol-4-ylimin] | 1,13 | 36% | 
3 | Bis(2-pyridinal-2,3-dihydro-1,5-dimethyl-3-oxo-2-phenyl-1H- pyrazol-4-ylimin)-nickel(II)perchlorat [[(α-Diimin)2Ni](ClO4)2] | 1,37 |  | 
4 | COc1cc([N+](=O)[O-])ccc1N=Cc1ccccn1 [2-MeO-4-NO2-Ph-PCD] |  |  | merkliche Toxizität
